Where “and” joins values, the source holds several entries; their conditions need not be identical. Equal values may be shown once.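 Dose response: 5 concentrations. Exposure: 48 h. Format: 96-well plates. Endpoint: linear interpolation; highest concentration if not reached. GI50: concentration for 50% inhibition of growth. TGI marks complete inhibition of growth.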
Key:
Experiment in all cases: NCI-60 cell line screen, 48 h
[1] = system: HCT-15 colon
[2] = system: TK-10 renal
[3] = system: OVCAR-3 ovarian
[4] = system: LOX IMVI melanoma
[5] = system: HS 578T breast
[6] = system: BT-549 breast
[7] = system: M14 melanoma
[8] = system: A549 NSCLC
[9] = system: OVCAR-8 ovarian
[10] = system: COLO 205 colon

SMILES | GI50 [1] | TGI [1] | GI50 [2] | TGI [2] | GI50 [3] | TGI [3] | GI50 [4] | TGI [4] | GI50 [5] | TGI [5] | GI50 [6] | TGI [6] | GI50 [7] | TGI [7] | GI50 [8] | TGI [8] | GI50 [9] | TGI [9] | GI50 [10] | TGI [10]
COc1ccc(C2=C(c3ccc(OC)c(OC)c3)C(=O)N3CCCC3C2)cc1 (centres undefined) | 5.18 µM | > 100 µM | 76.2 µM | > 100 µM | 23.9 µM | > 93.8 µM | 10.4 µM | > 52.7 µM | 6.71 µM | > 78 µM | > 71.2 µM | > 100 µM | 35.9 µM | > 100 µM | 15.1 µM | > 100 µM | 21.7 µM | > 100 µM | 8.41 µM | > 100 µM
COc1cc([N+](=O)[O-])c(OC)cc1-c1nc2sccn2c1/C=N/N=C(N)N | 26.3 µM | 72.4 µM | 18 µM | 50.6 µM | 14.6 µM | 66.5 µM | 17.9 µM | 41.5 µM | 19 µM | 43.9 µM | 18.6 µM | 42.2 µM | 40.8 µM | > 100 µM | 20.8 µM | 68.7 µM | 17.3 µM | 59.8 µM | 66 µM | > 100 µM
O=C(Nc1ccc(Oc2cccc(F)c2)c(Cl)c1)c1cnccn1 | 0.28 µM | > 50 µM | 3.75 µM | > 50 µM | 1 µM | 5.15 µM | 1.69 µM | > 50 µM | 1.19 µM | > 50 µM | 2.18 µM | > 50 µM | 0.78 µM | > 50 µM | 0.938 µM | > 50 µM | 2.51 µM | > 50 µM | 0.789 µM | > 50 µM
COc1ccc(N(/C=C/C(=O)C(F)(F)F)CC(=O)c2ccc(F)cc2)cc1 | 16 µM | 38.7 µM | 42.1 µM | 96.4 µM | 21.2 µM | 48.6 µM | 16.4 µM | 39.1 µM | 27.8 µM | 89.1 µM | 30.4 µM | > 100 µM | 20.6 µM | 56.7 µM | 32 µM | > 100 µM | 32.1 µM | > 100 µM | 26.9 µM | 84.5 µM
CCOC(=O)C1CCCCN1C(=O)c1ccc(Nc2cnc3cc(C(F)(F)F)ccc3n2)cc1 (centres undefined) | 17.2 µM | 42.6 µM | 13.3 µM | 28 µM | 15.5 µM | 31.6 µM | 3.62 µM | 16.4 µM | 3.18 µM | 14.7 µM | 20.1 µM | 38.7 µM | 14.9 µM | 29 µM | 15 µM | 44.2 µM | 33.2 µM | > 100 µM | 23 µM | 71.8 µM
C[C@]12CC[C@@H]3c4ccc(O)cc4CC[C@H]3[C@@H]1Cc1cnc(N)nc12 | 16.5 µM | 39.1 µM | 18.9 µM | 42.7 µM | 23 µM | 58.7 µM | 17.4 µM | 31.3 µM | 18.4 µM | 40.7 µM | 18.7 µM | 53.2 µM | 18.2 µM | 36.4 µM | 44 µM | > 100 µM | 92.9 µM | > 100 µM | 13.7 µM | 27.6 µM
Cc1ccc(-c2csc(NC(=O)N3CCN(c4cc5c(cc4F)c(=O)c(C(=O)O)cn5C4CC4)CC3)n2)cc1 | 0.417 µM | > 100 µM | – | – | 0.492 µM | 18.7 µM | 0.362 µM | > 100 µM | 0.666 µM | > 100 µM | 0.345 µM | 2.65 µM | 1.2 µM | > 100 µM | 0.365 µM | > 100 µM | 0.421 µM | 7.74 µM | 1.92 µM | 6 µM
O=C1C(SCCO)=C(SCCO)C(=O)N1c1ccc(-c2ccccc2)cc1 | 2.13 µM | 5.31 µM | 1.49 µM | 3.18 µM | 0.897 µM | 2.32 µM | 2.7 µM | 8.44 µM | 17.2 µM | > 77.9 µM | 4.01 µM | 8.38 µM | 2.31 µM | 7.64 µM | 10.2 µM | 27 µM | 2 µM | 5.82 µM | 1.45 µM | 3.09 µM
COC(=O)C1=C(C)NC(C)=C(C(=O)OCC(C)C)C1c1ccccc1[N+](=O)[O-] (centres undefined) | 3.88 µM | 15.9 µM | 4.11 µM | 13 µM | 6.35 µM | 19.6 µM | 3.07 µM | 16.6 µM | 13.9 µM | > 100 µM | 5.06 µM | 17.1 µM | 2.9 µM | 8.21 µM | 4.52 µM | 18.9 µM | 4.33 µM | 21 µM | 13.3 µM | 26 µM
O=c1c(O)c(-c2ccc(O)c(O)c2)oc2cc(O)cc(O)c12 | 10.1 µM | > 100 µM | 49.4 µM | > 100 µM | 16 µM | 49.2 µM and > 100 µM | 11.4 µM | > 84.1 µM and 35.9 µM | 4.12 µM | > 50.7 µM | 13.3 µM | 77.7 µM | 17.3 µM | > 100 µM | 19.3 µM | > 100 µM | 14.1 µM | > 100 µM | 60.8 µM | > 100 µM
COc1ccc(CC(=O)c2ccc(O)cc2O)cc1 | > 100 µM | > 100 µM | – | – | 61.5 µM | > 100 µM | > 100 µM | > 100 µM | > 100 µM | > 100 µM | 66.2 µM | > 100 µM | > 100 µM | > 100 µM | > 100 µM | > 100 µM | > 100 µM | > 100 µM | > 100 µM | > 100 µM
Cc1nn(-c2ccc(Cl)cc2)c2nc3c(nc12)C(=O)C(=O)c1ccccc1-3 | 3.4 µM | 16.8 µM | – | – | 3.48 µM | > 100 µM | 2.08 µM | 5.89 µM | 2.08 µM | 5.5 µM | 1.57 µM | 4.76 µM | 1.89 µM | 4.1 µM | 2.06 µM | 4.08 µM | 21.7 µM | > 100 µM | 2.03 µM | 4.86 µM
